Experimental data taken from patent publication US20230190967A1, “Method and Composition for Evaluating Response to Neurodegenerative Disease Treatment Agent” (GENUV INC., priority 2020, published 2023).
“Also recorded” adds a separate entry of the source. Read-outs that look alike come from different tables or passages of the source.

Assays:
[1] = system: 8-month-old 5XFAD mouse brain cortex; test: Single cell RNA sequencing of brain cortex: number of single cells analyzed per cell type; type: in vivo; details: 8-month-old 5XFAD mice cortex, trametinib 0.1 mg/kg/day
Procedure: (§1) Age-matched wild-type (WT) mice were orally administered vehicle for 2.5 months. Blood was obtained from all the mice at the age of 8 months after completion of the treatment and collected in EDTA tubes, which were centrifuged to obtain plasma. Mice were sacrificed by the perfusion method, and the brain cortex was extracted and immediately frozen.
(§2) Single-cell RNA sequencing analysis was performed on the 8-month-old 5XFAD mouse and wild type mouse brain cortex samples. The cortex was microdissected in HABG (Hibernate A buffer including B27 supplement and glutamine) media and digested in papain solution for 20 min at 37° C. (Brewer et al (2007). Isolation and culture of adult neurons and neurospheres. Nat Protoc 2, 1490-1498). Using a Pasteur pipette, the digested cortex was gently triturated. Cells were isolated by the density gradient method using OptiPrep (Sigma-Aldrich, D1556).
The cell suspension was diluted with Drop-seq buffer, and Drop-seq was performed using the Chromium™ Single Cell 3′ v2 Reagent Kit (Campbell et al. (2017). A molecular census of arcuate hypothalamus and median eminence cell types. Nat Neurosci 20, 484-496). Libraries were sequenced on the Illumina HiSeq X Ten, and Read 1 was 16 bp (10×™ Barcode and 10 bp UMI). […]

[2] = system: 8-month-old 5XFAD mouse brain cortex
Procedure: as §1, §2
The cell suspension was diluted with Drop-seq buffer, and Drop-seq was performed using the Chromium™ Single Cell 3′ v2 Reagent Kit (Campbell et al. (2017). A molecular census of arcuate hypothalamus and median eminence cell types. Nat Neurosci 20, 484-496). Libraries were sequenced on the Illumina HiSeq X Ten, and Read 1 was 16 bp (10×™ Barcode and 10 bp UMI). Cells with either very low or too high mRNA content (to only include: 200<gene number <3,000) or a high fraction of mitochondrial encoded transcripts (>20%) were filtered out. Using 20,056 cells, raw sequence data were aligned to the mouse (mm10) genome, and analyses including PCA, t-SNE, and graph-based clustering were performed with the Cell Ranger Single-Cell software.
In addition to the microglial cells, the other brain cell types were also analyzed for the genes differentially expressed between the experimental groups.

Spp1 mRNA = test: qRT-PCR of Spp1 mRNA expression in brain tissue of 5XFAD mice; type: in vivo, mouse; details: 0.1 mg/kg/day
Source text: as §1
(§3) Blood was obtained from the 13-month-old mice after completion of the treatment and collected in EDTA tubes, which were centrifuged to obtain plasma. Mice were sacrificed, and the brain cortex was extracted, washed with PBS, and immediately frozen.
(§4) In addition, qRT-PCR was performed to measure the mRNA expression level in the brain tissue of each animal. […] Reverse transcription was performed using M-MLV reverse transcriptase (Invitrogen, 28025013). qRT-PCR was performed using the SYBRTM Green PCR master mix (Thermo, 4367659) according to the manufacturer's instructions. Results were expressed relative to the housekeeping gene GAPDH (Glyceraldehyde-3-Phosphate Dehydrogenase).

Osteopontin (OPN) = test: ELISA of plasma osteopontin in 5XFAD mice; type: in vivo, mouse; details: for Decrease of plasma osteopontin (OPN) level vs. 5XFAD-vehicle group: 8-month-old 5XFAD
Source text: as §1, §3
(§5) ELISA was performed to detect changes in the level of biomarkers in the plasma of 5XFAD mice. The following ELISA kits were used for each of the biomarkers: • Neurofilament-light chain (NfL): Cloud-Clone, SEE038Mu • Cathepsin B (CTSB): Novus, NBP2-67254 • Osteopontin (OPN): LS bio, LS-F26046-1 • Synaptotagmin-1 (Syt1): LS bio, LS-F30963-1 • Apolipoprotein-E (ApoE): Novus, NBP2-66739
(§6) NfL, CTSB and ApoE were detected by colorimetric methods. OPN and Syt1 were detected by chemiluminescent methods. ELISA was performed according to the ELISA kit manufacturer's instructions.

Synaptotagmin-1 (Syt1) = test: ELISA of plasma synaptotagmin-1 in 5XFAD mice; type: in vivo, mouse; details: 8-month-old 5XFAD
Procedure: as §1, §5, §6

Apolipoprotein-E (ApoE) = test: ELISA of plasma apolipoprotein-E in 5XFAD mice; type: in vivo, mouse; details: 8-month-old 5XFAD
Procedure: as §1, §5, §6

Cathepsin B (CTSB) = system: Cathepsin B (CTSB)
Source text: as §1, §3, §5, §6

[3] = system: Neurofilament-light chain (NfL); test: ELISA of plasma neurofilament light chain in 5XFAD mice; type: in vivo, mouse
Source text: as §1, §3, §5, §6

Map2, a dendrite marker = test: Immunohistochemical analysis of Map2 (dendrite/neurite marker) in brain tissue of 5XFAD mice; type: in vivo, mouse; details: 8-month-old 5XFAD mice, FIGS. 8 and 9
Source text: as §1
The sections were counterstained with DAPI.

C57BL/6 mice whole brain = test: Whole cell RNA sequencing of whole brain of C57BL/6 mice after 1, 2, 3, or 4 weeks of administration; type: in vivo, mouse; details: 0.1 mg/kg/day
Procedure: Mice were sacrificed after 1, 2, 3, or 4 weeks of administration. Whole brain was extracted.
Whole cell RNA sequencing analysis was performed with the RNA isolated from the whole brain of the mice to observe the change of genes in the brain during the administration period.
The whole cell RNA sequencing was performed as follows. RNA was isolated from the whole brains of the mice, and cDNA libraries for RNA sequencing were prepared using the TruSeq Stranded mRNA Prep Kit (Illumina, San Diego, Calif.) according to the manufacturer's guidelines. The libraries were sequenced on the Illumina Nextseq500 platform, and the reads were mapped to the reference Mouse mm10 genome using Tophat v2.0.13. After read mapping, transcript assembly was performed using StringTie program. The expression profile for each sample was obtained, and RPKM (Read per Kilobase per million mapped reads) values were calculated based on the transcripts/genes. To compare the gene expression levels in each experimental group, DEG (Differentially Expressed Genes) were analyzed using DESeq2. As a result, 196 genes satisfying |fc|>=2, p value <0.05 in at least one comparison set were extracted. The extracted gene information was checked in KEGG database (http://www.kegg.jp/kegg/pathway.html) to identify which pathway the genes belong to. Genes showing at least a twofold increase in the expression level in the corresponding pathway were marked bold, and those showing at least a twofold decrease were marked italic on the right side of the heatmap (FIG. 10).

H2-Ob mRNA = test: qRT-PCR of H2-Ob mRNA expression in brain cortex of 5XFAD mice; type: in vivo, mouse; details: 8-month-old 5XFAD mice brain cortex, 0.1 mg/kg/day trametinib, FIG. 11
Procedure: as §1, §4

[4] = M (microglia), 8-month-old 5XFAD cortex, 0.1 mg/kg/day
[5] = microglia cluster, 5XFAD-Tra 0.1 group
[6] = 8-month-old 5XFAD, trametinib 0.1 mg/kg/day, statistically significant
[7] = C57BL/6 mice whole brain, at least twofold

CC(=O)Nc1cccc(-n2c(=O)n(C3CC3)c(=O)c3c(Nc4ccc(I)cc4F)n(C)c(=O)c(C)c32)c1 [trametinib, N-(3-{3-cyclopropyl-5-[(2-fluoro-4-iodophenyl)amino]-6,8-dimethyl-2,4,7-trioxo-3,4,6,7-tetrahydropyrido[4,3-d]pyrimidin-1(2H)-yl}phenyl)acetamide]
Microglial population compared to the 5XFAD-vehicle group [1]: decrease | Log2(5XFAD-Tra0.1/5XFAD-Veh) ApoE (Apolipoprotein E) ([2]; Astro (Astrocyte), 8-month-old 5XFAD cortex, 0.1 mg/kg/day): −0.5177 | Log2(5XFAD-Tra0.1/5XFAD-Veh) CTSB (Cathepsin B) ([2]; Endo (Endothelial), 8-month-old 5XFAD cortex, 0.1 mg/kg/day): 0.8182 | Log2(5XFAD-Tra0.1/5XFAD-Veh) CTSE (Cathepsin E) [2, 4]: −0.543 | Log2(5XFAD-Tra0.1/5XFAD-Veh) Spp1 (Osteopontin) [2, 4]: −0.646 | Decrease of Spp1 expression compared to the 5XFAD-vehicle group [2, 5]: at least 1.5 fold | Decrease of Wfdc17 expression compared to the 5XFAD-vehicle group [2, 5]: at least 1.5 fold | Expression of the Spp1 gene (in words) [2, 5]: decreased | Increase of Acta2 expression compared to the 5XFAD-vehicle group [2, 5]: at least 1.5 fold | Increase of Ptgds expression compared to the 5XFAD-vehicle group [2, 5]: at least 1.5 fold | Increase of Rpl9-ps6 expression compared to the 5XFAD-vehicle group [2, 5]: at least 1.5 fold | Increase of Rpl10-ps3 expression compared to the 5XFAD-vehicle group [2, 5]: at least 1.5 fold | Spp1 level (mRNA) compared with the 5XFAD-vehicle group (Spp1 mRNA; 8-month-old 5XFAD mice cortex, FIG. 1A): decreasing trend | Spp1 level (mRNA) compared with the 5XFAD-vehicle group (Spp1 mRNA; 13-month-old 5XFAD mice brain, FIG. 1B): decreasing trend | Decrease of plasma osteopontin (OPN) level vs. 5XFAD-vehicle group (Osteopontin (OPN); trametinib 0.05 mg/kg/day): 40% | Decrease of plasma osteopontin (OPN) level vs. 5XFAD-vehicle group (Osteopontin (OPN); trametinib 0.1 mg/kg/day): 43.9% | Decrease of plasma osteopontin (OPN) level vs. vehicle group (Osteopontin (OPN); 13-month-old 5XFAD, trametinib 0.1 mg/kg/day 1 month, statistically significant): 61.5% | Decrease of plasma synaptotagmin-1 (Syt1) level vs. 5XFAD-vehicle group (Synaptotagmin-1 (Syt1); trametinib 0.05 mg/kg/day): 26.2% | Decrease of plasma synaptotagmin-1 (Syt1) level vs. 5XFAD-vehicle group (Synaptotagmin-1 (Syt1); trametinib 0.1 mg/kg/day): 41.0% | Decrease of plasma apolipoprotein-E (APOE) level vs. 5XFAD-vehicle group (Apolipoprotein-E (ApoE); trametinib 0.1 mg/kg/day): 34.3% | Decrease of plasma apolipoprotein-E (APOE) level vs. 5XFAD-vehicle group (Apolipoprotein-E (ApoE); trametinib 0.2 mg/kg, statistically significant): 58.9% | Decrease of plasma cathepsin B level vs. 5XFAD-vehicle group (Cathepsin B (CTSB); 8-month-old 5XFAD, trametinib 0.05 mg/kg/day): 62.4% | Decrease of plasma cathepsin B level vs. 5XFAD-vehicle group (Cathepsin B (CTSB); [6]): 99% | Decrease of plasma cathepsin B level vs. 5XFAD-vehicle group (Cathepsin B (CTSB); 13-month-old 5XFAD, trametinib 0.1 mg/kg/day 1 month, FIG. 6): 35% | Decrease of plasma neurofilament light chain (NfL) level vs. 5XFAD-vehicle group [3, 6]: 47.4% | Plasma NfL levels, vehicle vs. trametinib-administered groups ([3]; 13-month-old 5XFAD, trametinib 0.1 mg/kg/day 1 month, FIG. 7B): did not show a significant difference | Neurite marker (Map2) in the brain tissue (Map2, a dendrite marker): increased | Genes showing an increase in the expression level in weeks 1 and 2 (C57BL/6 mice whole brain; [7]): Oprm1, Glp1r, Grin2a, Grin2b, Glra3,; also recorded: Glra1, Cnr2, Grin3b, Gabrr2, Ksr2, Cdh1,; also recorded: Tead4, Ctnna3, PDE11a, Nt5cla | Genes showing an increase in the expression level in weeks 3 and 4 (C57BL/6 mice whole brain; [7]): Plin4, H2-Ob, Hspa1l, HSPa1b, Hnmpa1,; also recorded: Nos2, Rab5c | Genes showing a decrease in the expression level in weeks 1 and 2 (C57BL/6 mice whole brain; [7]): Pla2g4c, C1s2 | Genes showing a decrease in the expression level in weeks 3 and 4 (C57BL/6 mice whole brain; [7]): Efna4, Scd4, Cd36, Ppp3r2 | H2-Ob level (whole brain RNA sequencing) (C57BL/6 mice whole brain; C57BL/6 mice, 3 and 4 weeks after the administration): remarkably increased | H2-Ob mRNA expression level compared to the 5XFAD-vehicle group (H2-Ob mRNA): significantly increased
